What all share (assay type): binding
Experiment [1] addresses T1, natural TetR (Escherichia coli, UniProt P04483).
T1 construct: made in house
The experiment is described as follows: Surface plasmon resonance affinity, natural TetR. The following applies: for pKd: KD (equilibrium dissociation constant, Kd/Ka); for pKd / koff (dissociation rate constant): SPR. The procedure: (§1) After the experiments, the association constant (Ka), the dissociation constant (Kd), and the equilibrium dissociation constant (KD = Kd/Ka) for each drug were calculated. For convenience in comparing their affinities, the absolute affinity constant (KA = […]) for each drug was also calculated.
For orientation: In SPR one partner is held on a chip, and binding of the other changes the refractive index at the surface.

The target in experiment [2] is T2, TetR mutant (Escherichia coli, UniProt P04483, H139W).
T2 construct: made in house; host or cells: E. coli Rosetta-gami(BL21), vector pET28a
The experiment is described as follows: Surface plasmon resonance affinity, TetR mutant. The following applies: SPR; for pKd: KD (equilibrium dissociation constant, Kd/Ka). The protocol: as §1
The primers were designed according to the virtual model: mutant for, […]; mutant rev, […]. The amplified gene was inserted into pET28a to construct the express vector that was transformed into E. coli Rosetta-gami(BL21) to express the mutant, and these procedures were according to our recent report. The obtained TetR mutant was characterized by using SDS-PAGE and western blotting according to our recent report, and its recognition ability for the 10 TCs was evaluated by the following FPA method. Furthermore, its recognition mechanisms and affinities for the 10 TCs were also determined as described above.

Experiment [3] addresses T1, natural TetR. The experiment is described as follows: Fluorescence polarization assay (FPA) with natural TetR. The protocol:
(§2) The FPA method was performed as follows. A total of 50 μL mutant, 50 μL TCs solution, and 50 μL fluorescent tracer were added into the wells of a 96-well microplate (in triplicate) and incubated for 2 min. Then the fluorescence polarization (FP) value of each well was recorded (λex 485 nm, λem 528 nm, emission cutoff of 515 nm). During the experiments, the two fluorescent tracers were compared, and several other parameters were optimized, including tracer concentration, mutant concentration, Mg^2+ concentration and incubation time. The 10 TCs and several other classes of drugs were all tested by this method. The competitive curve was developed by plotting the FP/FP0 values (the fluorescence polarization value at each concentration divided by that of zero concentration) versus the concentrations of the TCs (log C). Based on the developed competitive curve, the half of inhibition (IC50) and the limit of detection (IC10) for each drug were determined, respectively.
(§3) This is the first study reporting an FPA method for the determination of TCs. Under the optimal conditions, the 10 TCs were diluted with the extracts of a blank milk sample to be analyzed, respectively. […] During the experiments, the natural TetR was also used to perform the FPA method as described above.
(In general: Polarisation of emitted light reports the rotation of a fluorescent probe.)

The target of experiment [4] is T2, TetR mutant. The experiment is described as follows: Fluorescence polarization assay (FPA) with TetR mutant. The following applies: for LOD (limit of detection, IC10) / FP values at 0 and 100 ng/mL: TetR mutant; for LOD (limit of detection, IC10): FPA, FA-MC tracer, drugs diluted with blank milk extract; for FP values at 0 and 100 ng/mL: either tracer (FITC-MC or FA-MC), specificity test. The protocol: as §2
For obtaining the best method performance, several parameters were optimized with DMC as the representative. Firstly, the concentrations of FA-MC and the mutant were optimized. During the experiments, the FA-MC and the mutant at different concentrations were mixed with the same concentration of DMC to perform the assay. […] Secondly, the concentration of Mg^2+ (MgCl2) was optimized. […] Thirdly, the competition time was optimized.
as §3

[5] abbreviates: read-out: Ka (association constant), TetR without Mg2+, SPR.
Where [6] appears, read: read-out: Ka (association constant), TetR+Mg2+, SPR.

Structures are written as SMILES. pIC50, pKd: −log10 of the molar value. Read-outs that look alike come from different tables or passages of the source.

What is called pKd is −log10 of the Kd, conventionally taken in molar units. Lower therefore signals a large Kd. As usually defined, the pIC50 is the negative decadic logarithm of the IC50, by convention in mol/L. Low values mean a high IC50, high ones a low IC50.

As to `CN(C)[C@@H]1C(O)=C(C(N)=O)C(=O)[C@@]2(O)C(O)=C3C(=O)c4c(O)cccc4[C@@](C)(O)[C@H]3C[C@@H]12` [TC, tetracycline], the pKd is 5.11 on natural TetR [1] (TetR without Mg2+), 5.32 on natural TetR [1] (TetR+Mg2+), 6.11 on TetR mutant [2] (TetR mutant without Mg2+) and 7.21 at TetR mutant [2] (TetR mutant+Mg2+). Moreover, the “koff (dissociation rate constant)” value at natural TetR [1] (TetR without Mg2+) is 0.00156 s⁻¹; on natural TetR [1] (TetR+Mg2+), 0.00133 s⁻¹. Besides, the kon at natural TetR [1] (setting [5]) is 203 M⁻¹ s⁻¹; at natural TetR [1] (setting [6]), 278 M⁻¹ s⁻¹. For the same compound, the figures for the “Dissociation rate constant (koff)” value on TetR mutant [2] (TetR mutant without Mg2+) and on TetR mutant [2] (TetR mutant+Mg2+) were 0.000156 s⁻¹ and 0.000121 s⁻¹, respectively. Besides, the pIC50 against natural TetR [3] was 6.84; against TetR mutant [4] it was 7.07. Besides, the “LOD (limit of detection, IC10)” value on TetR mutant [4] is on record as 1.3 ng/mL.
Consider `CN(C)[C@@H]1C(O)=C(C(N)=O)C(=O)[C@@]2(O)C(O)=C3C(=O)c4c(O)ccc(Cl)c4[C@@](C)(O)[C@H]3C[C@@H]12` [CTC, chlortetracycline], for which the pKd was 5.30 on natural TetR [1] (TetR without Mg2+), 5.59 on natural TetR [1] (TetR+Mg2+), 7.79 on TetR mutant [2] (TetR mutant without Mg2+) and 8.04 on TetR mutant [2] (TetR mutant+Mg2+). Also, the “koff (dissociation rate constant)” value on natural TetR [1] (TetR without Mg2+) came to 0.0148 s⁻¹; at natural TetR [1] (TetR+Mg2+), 0.0113 s⁻¹. Besides, the kon on natural TetR [1] (setting [5]) is 2970 M⁻¹ s⁻¹; on natural TetR [1] (setting [6]) it was 4430 M⁻¹ s⁻¹. The “Dissociation rate constant (koff)” value at TetR mutant [2] (TetR mutant without Mg2+) was found to be 0.000822 s⁻¹; at TetR mutant [2] (TetR mutant+Mg2+), 0.000404 s⁻¹. The pIC50 is 6.78 at natural TetR [3] and 6.94 against TetR mutant [4]. The “LOD (limit of detection, IC10)” value at TetR mutant [4] stood at 1.4 ng/mL.
For the compound `O=C(O)c1cn(C2CC2)c2cc(N3CCNCC3)c(F)cc2c1=O` [ciprofloxacin], the “FP values at 0 and 100 ng/mL” value on TetR mutant [4] is recorded as “comparably high”.
As for `C=C1c2cccc(O)c2C(=O)C2=C(O)[C@]3(O)C(=O)C(C(N)=O)=C(O)[C@@H](N(C)C)[C@@H]3[C@@H](O)[C@H]12` [MTC, Methacycline], the negative-log Kd (pKd) at natural TetR [1] (TetR without Mg2+) was 6.95; at natural TetR [1] (TetR+Mg2+) it was 6.91; at TetR mutant [2] (TetR mutant without Mg2+), 8.40; at TetR mutant [2] (TetR mutant+Mg2+), 9.52. The figures for the “koff (dissociation rate constant)” value on natural TetR [1] (TetR without Mg2+) and at natural TetR [1] (TetR+Mg2+) were 0.00016 s⁻¹ and 0.000162 s⁻¹, respectively. Also, the kon came out at 1440 M⁻¹ s⁻¹ at natural TetR [1] (setting [5]) and 1330 M⁻¹ s⁻¹ on natural TetR [1] (setting [6]). The “Dissociation rate constant (koff)” value on TetR mutant [2] (TetR mutant without Mg2+) was found to be 5.71e-06 s⁻¹; on TetR mutant [2] (TetR mutant+Mg2+), 5.59e-06 s⁻¹. Further, the negative logarithm of the IC50 (pIC50) is 6.94 on natural TetR [3] and 6.96 on TetR mutant [4]. In addition, on TetR mutant [4], the “LOD (limit of detection, IC10)” value worked out at 1.5 ng/mL.
For `[H]/N=C(/N)N[C@H]1[C@H](O)[C@@H](O)[C@H](O[C@@H]2O[C@@H](C)[C@](O)(C=O)[C@H]2O[C@@H]2O[C@@H](CO)[C@H](O)[C@@H](O)[C@@H]2NC)[C@@H](N/C(N)=N\[H])[C@@H]1O` [streptomycin], the “FP values at 0 and 100 ng/mL” value at TetR mutant [4] is “comparably high”.
Take `CN(C)c1cc(NC(=O)CNC(C)(C)C)c(O)c2c1C[C@H]1C[C@H]3[C@H](N(C)C)C(O)=C(C(N)=O)C(=O)[C@@]3(O)C(O)=C1C2=O` [TIC, tigecycline]: the pKd on natural TetR [1] (TetR without Mg2+) is 7.98; at natural TetR [1] (TetR+Mg2+), 7.55; on TetR mutant [2] (TetR mutant without Mg2+), 9.98; on TetR mutant [2] (TetR mutant+Mg2+), 9.98. Further, the “koff (dissociation rate constant)” value at natural TetR [1] (TetR without Mg2+) came out at 1.04e-05 s⁻¹; on natural TetR [1] (TetR+Mg2+), 1.78e-05 s⁻¹. Also, the kon on natural TetR [1] (setting [5]) is 1010 M⁻¹ s⁻¹; at natural TetR [1] (setting [6]), 633 M⁻¹ s⁻¹. In addition, the “Dissociation rate constant (koff)” value stood at 9.45e-07 s⁻¹ on TetR mutant [2] (TetR mutant without Mg2+) and 1.78e-06 s⁻¹ at TetR mutant [2] (TetR mutant+Mg2+). Besides, the pIC50 is 7.28 against natural TetR [3] and 7.56 against TetR mutant [4]. The “LOD (limit of detection, IC10)” value on TetR mutant [4] came out at 0.4 ng/mL.
In the case of `CN(C)CCCN1c2ccccc2Sc2ccc(Cl)cc21` [chlorpromazine], on TetR mutant [4], the “FP values at 0 and 100 ng/mL” value is listed as “comparably high”.
Take `CN1C(=O)CN=C(c2ccccc2)c2cc(Cl)ccc21` [diazepam]: the “FP values at 0 and 100 ng/mL” value on TetR mutant [4] is “comparably high”.

The record behind these values is publication PMC9735679, “Identification and Evolution of a Natural Tetr Protein Based on Molecular Docking and Development of a Fluorescence Polari-Zation Assay for Multi-Detection of 10 Tetracyclines in Milk” (Foods, 2022).
